Activity calls are given as the source filed them. No cut-off for these calls is given here.
Legend:
[1] = test system: MDA-MB-231; settings: Homo sapiens, 5 mg/kg
[2] = test system: MDA-MB-231; assay: Antitumor activity against human MDA-MB-231 cells xenografted in SCID mouse assessed as tumor size at 5 mg/kg, iv administered on day 1 to 5 and 8 to 12 post tumor implantation measured on day 50 (reference value: 1136 mm'3); type: functional
[3] = test system: Mus musculus; assay: Toxicity in SCID mouse xenografted with human MDA-MB-231 cells assessed as weight loss at 5 mg/kg, iv administered on day 1 to 5 and 8 to 12 post tumor implantation; type: organism-based; design: dose 5 mg/kg, route intravenous; settings: in vivo
[4] = test system: MDA-MB-231; assay: Antitumor activity against human MDA-MB-231 cells xenografted in SCID mouse assessed as inhibition tumor growth intravenously administered on day 1 to 5 and 8 to 12 post tumor implantation; type: functional, cell-based
[5] = test system: MDA-MB-231; assay: Induction of apoptosis in human MDA-MB-231 cells assessed as cIAP2 degradation at 30 nM after 24 hrs by Western blotting; type: functional, cell-based
[6] = test system: MDA-MB-231; assay: Induction of apoptosis in human MDA-MB-231 cells assessed as PARP cleavage at 30 nM after 24 hrs by Western blotting; type: functional, cell-based
[7] = test system: MDA-MB-231; assay: Induction of apoptosis in human MDA-MB-231 cells assessed as caspase-3 processing at 30 nM after 24 hrs by Western blotting; type: functional, cell-based
[8] = test system: MDA-MB-231; assay: Drug uptake in human MDA-MB-231 cells assessed as intracellular concentration at 300 nM after 3 hrs by LC-MS/MS; type: ADME, cell-based; settings: mda-mb-231, 3 h, 0.3 µM
[9] = test system: MDA-MB-231; assay: Induction of apoptosis in human MDA-MB-231 cells assessed as cIAP2 degradation at 1 nM after 24 hrs by Western blotting; type: functional, cell-based
[10] = test system: MDA-MB-231; assay: Induction of apoptosis in human MDA-MB-231 cells assessed as cIAP1 degradation at 1 nM after 24 hrs by Western blotting; type: functional, cell-based
[11] = test system: MDA-MB-231; assay: Induction of apoptosis in human MDA-MB-231 cells assessed as caspase-3 processing at 3 nM after 24 hrs by Western blotting; type: functional, cell-based
[12] = test system: MDA-MB-231; assay: Induction of apoptosis in human MDA-MB-231 cells assessed as PARP cleavage at 3 nM after 24 hrs by Western blotting; type: functional, cell-based
[13] = target: T1, E3 ubiquitin-protein ligase XIAP (Homo sapiens, UniProt P98170); assay: Competitive inhibition of human XIAP linker BIR2-BIR3 domain expressed in Escherichia coli BL21(DE3) cells by fluorescence polarization-based assay
[14] = target: T1, E3 ubiquitin-protein ligase XIAP
[15] = target: T1, E3 ubiquitin-protein ligase XIAP; assay: Competitive inhibition of His-tagged human XIAP BIR3 domain expressed in Escherichia coli BL21(DE3) after 2 to 3 hrs by fluorescence polarization assay
[16] = test system: MDA-MB-231; assay: cells; settings: Homo sapiens
[17] = target: T1, E3 ubiquitin-protein ligase XIAP; assay: biochemical
[18] = test system: MDA-MB-231; assay: Induction of apoptosis in human MDA-MB-231 cells assessed as cIAP2 degradation at 10 nM after 24 hrs by Western blotting; type: functional, cell-based
[19] = test system: MDA-MB-231; assay: Induction of apoptosis in human MDA-MB-231 cells assessed as cIAP1 degradation at 10 nM after 24 hrs by Western blotting; type: functional, cell-based
[20] = test system: MDA-MB-231; assay: Induction of apoptosis in human MDA-MB-231 cells assessed as caspase-3 processing at 10 nM after 24 hrs by Western blotting; type: functional, cell-based
[21] = target: T2, Baculoviral IAP repeat-containing protein 2 (Homo sapiens, UniProt Q13490); assay: Binding affinity to human cIAP1 BIR2-BIR3 domain after 2 to 3 hrs by fluorescence polarization-based assay
[22] = target: T2, Baculoviral IAP repeat-containing protein 2; assay: Competitive inhibition of human cIAP1 BIR3 domain after 2 to 3 hrs by fluorescence polarization assay
[23] = test system: MDA-MB-231; assay: Drug uptake in human MDA-MB-231 cells assessed as intracellular concentration at 300 nM after 1 min by LC-MS/MS; type: ADME, cell-based; settings: mda-mb-231, 1 min, 0.3 µM
[24] = target: T2, Baculoviral IAP repeat-containing protein 2; assay: Competitive inhibition of human cIAP1BIR2-BIR3 domain after 2 to 3 hrs by fluorescence polarization assay
[25] = target: T2, Baculoviral IAP repeat-containing protein 2; assay: Binding affinity to human cIAP1 BIR3 domain after 2 to 3 hrs by fluorescence polarization-based assay
[26] = test system: Mus musculus; assay: Toxicity in SCID mouse xenografted with human MDA-MB-231 cells assessed as weight loss at […], iv administered on day 2 and 9; type: organism-based; design: dose 7.5 mg/kg, route intravenous; settings: in vivo

With `CN[C@@H](C)C(=O)N[C@H]1CCCC[C@H]2CC[C@@H](C(=O)N[C@@H](c3ccccc3)c3cn(CCCCCOCCCCCn4cc([C@@H](NC(=O)[C@@H]5CC[C@@H]6CCCC[C@H](NC(=O)[C@H](C)NC)C(=O)N65)c5ccccc5)nn4)nn3)N2C1=O` the inhibition [1] was “Active”, the Activity [2] was 269 mm3 and the Activity [3] was “Toxic”. For the same compound, the Activity [4] was “Dose-dependent effect”.
In the case of `CN[C@@H](C)C(=O)N[C@H]1CCCC[C@H]2CC[C@@H](C(=O)N[C@@H](c3ccccc3)c3cn(CCc4ccc(CCn5cc([C@@H](NC(=O)[C@@H]6CC[C@@H]7CCCC[C@H](NC(=O)[C@H](C)NC)C(=O)N76)c6ccccc6)nn5)cc4)nn3)N2C1=O`, the Activity [5] is reported as “Active”, the Activity [6] is reported as “inactive” and the Activity [7] is reported as “inactive”. The Drug uptake [8] was 67.7 nM.
`CN[C@@H](C)C(=O)N[C@H]1CCCC[C@H]2CC[C@@H](C(=O)N[C@@H](c3ccccc3)c3cn(CCCCCCc4ccc(CCCCCCn5cc([C@@H](NC(=O)[C@@H]6CC[C@@H]7CCCC[C@H](NC(=O)[C@H](C)NC)C(=O)N76)c6ccccc6)nn5)cc4)nn3)N2C1=O` was tested, and the Activity [9] was “Active”, the Activity [10] was “Active” and the Activity [11] was “Active”. For the same compound, the Activity [12] was “Active”.
`CC(=O)N[C@@H](Cc1c[nH]c2ccccc12)C(=O)N[C@H]1CCCC[C@H]2CC[C@@H](C(=O)N[C@@H](c3ccccc3)c3cn(CCCCc4ccc(CCCCn5cc([C@@H](NC(=O)[C@@H]6CC[C@@H]7CCCC[C@H](NC(=O)[C@H](Cc8c[nH]c9ccccc89)NC(C)=O)C(=O)N76)c6ccccc6)nn5)cc4)nn3)N2C1=O` showed an IC50 [13] of over 50000 nM, a Ki [14] of over 10000 nM and an IC50 [15] of over 50000 nM. For the same compound, the IC50 [16] was over 100000 nM and the Ki [17] was over 10000 nM.
In the case of `CN[C@@H](C)C(=O)N[C@H]1CCCC[C@H]2CC[C@@H](C(=O)N[C@@H](c3ccccc3)c3cn(CCCc4ccc(CCCn5cc([C@@H](NC(=O)[C@@H]6CC[C@@H]7CCCC[C@H](NC(=O)[C@H](C)NC)C(=O)N76)c6ccccc6)nn5)cc4)nn3)N2C1=O`, the Activity [18] is reported as “Active”, the Activity [19] is reported as “Active” and the Activity [20] is reported as “Active”. For the same compound, the Activity [12] was “Active”.
`CN[C@@H](C)C(=O)N[C@H]1CCCC[C@H]2CC[C@@H](C(=O)N[C@@H](c3ccccc3)c3cn(CCCCc4ccc(CCCCn5cc([C@@H](NC(=O)[C@@H]6CC[C@@H]7CCCC[C@H](NC(=O)[C@H](C)NC)C(=O)N76)c6ccccc6)nn5)cc4)nn3)N2C1=O` was tested, and the Activity [9] was “Active”, the Activity [10] was “Active” and the Activity [11] was “Active”. For the same compound, the Ki [21] was 1.5 nM, the IC50 [22] was 4.6 nM and the Drug uptake [8] was 541 nM. For the same compound, the Drug uptake [23] was 106 nM, the IC50 [24] was 5.7 nM and the Activity [12] was “Active”. It also gave an IC50 [16] of 3.3 nM and a Ki [25] of under 1 nM.
`CC(=O)O[C@@]12CO[C@@H]1C[C@H](O)[C@@]1(C)C(=O)[C@H](O)C3=C(C)[C@@H](OC(=O)[C@H](O)[C@@H](NC(=O)OC(C)(C)C)c4ccccc4)C[C@@](O)([C@@H](OC(=O)c4ccccc4)[C@H]21)C3(C)C.O.O.O` [DOCETAXEL] was tested, and the Activity [26] was “Toxic”.
With `CN[C@@H](C)C(=O)N[C@H]1CCCC[C@H]2CC[C@@H](C(=O)N[C@@H](c3ccccc3)c3cn(Cc4ccc(Cn5cc([C@@H](NC(=O)[C@@H]6CC[C@@H]7CCCC[C@H](NC(=O)[C@H](C)NC)C(=O)N76)c6ccccc6)nn5)cc4)nn3)N2C1=O` the Activity [6] was “inactive”, the Activity [7] was “inactive” and the Drug uptake [8] was 75.2 nM. It also gave a Drug uptake [23] of 21.2 nM.
`CN[C@@H](C)C(=O)N[C@H]1CCCC[C@H]2CC[C@@H](C(=O)N[C@@H](c3ccccc3)c3cn(CCOCCOCCOCCn4cc([C@@H](NC(=O)[C@@H]5CC[C@@H]6CCCC[C@H](NC(=O)[C@H](C)NC)C(=O)N65)c5ccccc5)nn4)nn3)N2C1=O` gave a Drug uptake [8] of 7.3 nM and a Drug uptake [23] of 6.7 nM.
